Reference: ChEMBL document CHEMBL4261574 (Medchemcomm, 2018)

Columns and labels:
[1] = Selectivity index, ratio of IC50 for ovine COX-1 to IC50 for recombinant human COX-2
[2] = biological target: T1, Prostaglandin G/H synthase 2 (Homo sapiens, UniProt P35354)
T1 sequence (P35354 whole entry): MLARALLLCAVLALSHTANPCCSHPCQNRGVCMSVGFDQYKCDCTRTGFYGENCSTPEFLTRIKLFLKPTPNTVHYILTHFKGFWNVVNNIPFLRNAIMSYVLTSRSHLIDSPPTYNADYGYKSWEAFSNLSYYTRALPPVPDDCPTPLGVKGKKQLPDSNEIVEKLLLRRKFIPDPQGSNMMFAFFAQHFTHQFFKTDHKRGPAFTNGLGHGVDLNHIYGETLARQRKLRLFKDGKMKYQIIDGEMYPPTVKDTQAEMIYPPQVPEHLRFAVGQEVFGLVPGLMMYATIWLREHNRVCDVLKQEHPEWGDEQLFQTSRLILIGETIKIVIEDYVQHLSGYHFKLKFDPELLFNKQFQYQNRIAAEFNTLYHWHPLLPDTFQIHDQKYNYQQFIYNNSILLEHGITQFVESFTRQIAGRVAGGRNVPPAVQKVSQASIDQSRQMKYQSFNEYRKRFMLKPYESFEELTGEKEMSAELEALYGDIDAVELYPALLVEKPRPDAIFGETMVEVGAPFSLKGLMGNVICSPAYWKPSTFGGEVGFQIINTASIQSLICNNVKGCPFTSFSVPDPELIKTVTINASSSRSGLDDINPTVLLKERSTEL

[3] = biological target: T2, Prostaglandin G/H synthase 1 (Ovis aries, UniProt P05979); test: Inhibition of ovine COX-1 assessed as reduction of prostaglandin-G2 to prostaglandin-H2 by measuring oxidation of 10-acetyl-3,7-dihydroxyphenoxazine to resorufin after 5 mins by fluorescence based assay
T2 sequence (P05979 whole entry): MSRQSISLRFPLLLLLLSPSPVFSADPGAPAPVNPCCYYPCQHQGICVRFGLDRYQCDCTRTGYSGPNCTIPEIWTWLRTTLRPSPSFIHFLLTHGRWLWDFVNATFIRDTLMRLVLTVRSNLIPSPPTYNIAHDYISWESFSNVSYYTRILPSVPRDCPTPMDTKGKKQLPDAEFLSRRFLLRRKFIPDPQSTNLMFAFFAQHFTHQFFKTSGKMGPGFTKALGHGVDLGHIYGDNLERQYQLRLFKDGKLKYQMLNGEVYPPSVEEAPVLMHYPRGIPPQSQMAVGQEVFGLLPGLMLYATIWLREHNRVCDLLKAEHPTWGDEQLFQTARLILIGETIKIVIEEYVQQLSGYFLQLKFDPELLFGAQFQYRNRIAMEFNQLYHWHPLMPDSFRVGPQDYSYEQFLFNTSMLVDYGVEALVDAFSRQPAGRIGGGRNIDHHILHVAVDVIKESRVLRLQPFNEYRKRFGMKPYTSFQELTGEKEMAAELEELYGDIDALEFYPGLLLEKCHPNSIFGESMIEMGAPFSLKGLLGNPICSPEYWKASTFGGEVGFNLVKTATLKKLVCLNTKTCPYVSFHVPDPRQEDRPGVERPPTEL

[4] = Dissociation constant, pKa of compound; type: physicochemical
[5] = Solubility of compound in normal saline; type: physicochemical

Question: Which results are given for `CS(=O)(=O)c1ccc(-c2c(-c3ccc(F)cc3)noc2Cl)cc1`?
Answer: Ratio IC50 [1]: 28.7; IC50 [2]: 0.351 µM; IC50 [3]: 10.1 µM

Question: Which results are given for `CC(=O)c1onc(-c2ccc(F)cc2)c1-c1ccc(S(C)(=O)=O)cc1`?
Answer: IC50 [2]: > 100 µM; IC50 [3]: > 100 µM

Question: With `CS(=O)(=O)c1ccc(-c2cc(-c3ccc(F)cc3)no2)cc1` as the compound, how does the IC50 [2] read?
Answer: > 100 µM

Question: And the IC50 [3]?
Answer: > 100 µM

Question: For `NS(=O)(=O)c1ccc(-c2conc2-c2ccccc2)cc1`, which Ratio IC50 [1] is on record?
Answer: > 2100

Question: What about the IC50 [2] of the same compound?
Answer: 0.048 µM

Question: And the IC50 [3]?
Answer: > 100 µM

Question: Which Ratio IC50 [1] does the source give for `CS(=O)(=O)c1ccc(-c2conc2-c2ccccc2)cc1` here?
Answer: > 400

Question: And the IC50 [2]?
Answer: 0.247 µM

Question: And the IC50 [3]?
Answer: > 100 µM

Question: What does the source list for `COC(=O)c1onc(-c2ccc(F)cc2)c1-c1ccc(S(C)(=O)=O)cc1`?
Answer: IC50 [2]: > 100 µM; IC50 [3]: > 100 µM

Question: Which Ratio IC50 [1] does the source give for `CS(=O)(=O)c1ccc(-c2c(-c3ccc(F)cc3)noc2C=O)cc1` here?
Answer: > 7

Question: And the IC50 [2]?
Answer: 13.8 µM

Question: What about the IC50 [3] of the same compound?
Answer: > 100 µM

Question: For `C[Si](C)(C)c1c(-c2ccc(F)cc2)noc1-c1ccc(S(C)(=O)=O)cc1`, which IC50 [2] is on record?
Answer: > 100 µM

Question: What about the IC50 [3] of the same compound?
Answer: > 100 µM

Question: Which results are given for `Cc1onc(-c2ccccc2)c1-c1ccc(S(N)(=O)=O)cc1` [VALDECOXIB]?
Answer: pKa [4]: 9.8; solubility [5]: 10 mM

Question: For `Cc1onc(-c2ccc(F)cc2)c1-c1ccc(S(N)(=O)=O)cc1`, which Ratio IC50 [1] is on record?
Answer: > 1400

Question: And the IC50 [2]?
Answer: 0.073 µM

Question: What about the IC50 [3] of the same compound?
Answer: > 100 µM

Question: With `C[Si](C)(C)c1onc(-c2ccc(F)cc2)c1-c1ccc(S(C)(=O)=O)cc1` as the compound, how does the Ratio IC50 [1] read?
Answer: > 54

Question: And the IC50 [2]?
Answer: 1.87 µM

Question: And the IC50 [3]?
Answer: > 100 µM

Question: With `C[Si](C)(C)c1onc(-c2ccc(F)cc2)c1-c1ccc(S(N)(=O)=O)cc1` as the compound, how does the Ratio IC50 [1] read?
Answer: > 110

Question: What about the IC50 [2] of the same compound?
Answer: 0.93 µM

Question: And the IC50 [3]?
Answer: > 100 µM

Question: For `C[Si](C)(C)c1c(-c2ccccc2)noc1-c1ccc(S(C)(=O)=O)cc1`, which IC50 [2] is on record?
Answer: > 100 µM

Question: And the IC50 [3]?
Answer: > 100 µM

Question: With `CS(=O)(=O)c1ccc(-c2conc2-c2ccc(F)cc2)cc1` as the compound, how does the Ratio IC50 [1] read?
Answer: > 1800

Question: And the IC50 [2]?
Answer: 0.057 µM

Question: What about the IC50 [3] of the same compound?
Answer: > 100 µM

Question: What does the source list for `NS(=O)(=O)c1ccc(-c2conc2-c2ccc(F)cc2)cc1`?
Answer: Ratio IC50 [1]: > 2400; IC50 [2]: 0.042 µM; IC50 [3]: > 100 µM

Question: For `C[Si](C)(C)c1c(-c2ccc(F)cc2)noc1-c1ccc(S(N)(=O)=O)cc1`, which Ratio IC50 [1] is on record?
Answer: > 2.6

Question: What about the IC50 [2] of the same compound?
Answer: 38.2 µM

Question: And the IC50 [3]?
Answer: > 100 µM

Question: What does the source list for `CS(=O)(=O)c1ccc(-c2c(-c3ccc(F)cc3)noc2C(=O)c2ccccc2)cc1`?
Answer: IC50 [2]: > 100 µM; IC50 [3]: > 100 µM

Question: Which Ratio IC50 [1] does the source give for `C[Si](C)(C)c1onc(-c2ccccc2)c1-c1ccc(S(C)(=O)=O)cc1` here?
Answer: 23.9

Question: What about the IC50 [2] of the same compound?
Answer: 4.17 µM

Question: What about the IC50 [3] of the same compound?
Answer: > 100 µM

Question: For `CS(=O)(=O)c1ccc(-c2c(-c3ccc(F)cc3)noc2C(F)(F)F)cc1`, which Ratio IC50 [1] is on record?
Answer: > 12

Question: What about the IC50 [2] of the same compound?
Answer: 8.14 µM

Question: What about the IC50 [3] of the same compound?
Answer: > 100 µM

Question: Which results are given for `NS(=O)(=O)c1ccc(-c2cc(-c3ccc(F)cc3)no2)cc1`?
Answer: Ratio IC50 [1]: > 1.2; IC50 [2]: 81.2 µM; IC50 [3]: > 100 µM

Question: Which solubility [5] does the source give for `CCC(=O)NS(=O)(=O)c1ccc(-c2c(-c3ccccc3)noc2C)cc1` [PARECOXIB] here?
Answer: > 50 mg/mL

Question: Which Ratio IC50 [1] does the source give for `C[Si](C)(C)c1c(-c2ccccc2)noc1-c1ccc(S(N)(=O)=O)cc1` here?
Answer: > 9

Question: What about the IC50 [2] of the same compound?
Answer: 11.1 µM

Question: What about the IC50 [3] of the same compound?
Answer: > 100 µM

Question: For `C[Si](C)(C)c1onc(-c2ccccc2)c1-c1ccc(S(N)(=O)=O)cc1`, which Ratio IC50 [1] is on record?
Answer: > 770

Question: And the IC50 [2]?
Answer: 0.13 µM

Question: And the IC50 [3]?
Answer: > 100 µM

Question: Which Ratio IC50 [1] does the source give for `NS(=O)(=O)c1ccc(-c2cc(-c3ccccc3)no2)cc1` here?
Answer: > 9.3

Question: What about the IC50 [2] of the same compound?
Answer: 10.8 µM

Question: And the IC50 [3]?
Answer: > 100 µM

Question: Which Ratio IC50 [1] does the source give for `CS(=O)(=O)c1ccc(-c2cc(-c3ccccc3)no2)cc1` here?
Answer: > 7.4

Question: What about the IC50 [2] of the same compound?
Answer: 13.5 µM

Question: What about the IC50 [3] of the same compound?
Answer: > 100 µM
